Assay: Phase I clinical trial: pharmacokinetic analysis of TLC388HCl diastereomers and metabolites after IV infusion
Conditions: for difference between PK profiles on Day 1 and Day 8: Cycle 1; for half-life: plasma, after IV administration of TLC388HCl composition
[1] = Day 1, dose group 1.5 mg/m^2 TLC388HCl, Mean (SD)
[2] = Day 1, dose group 3.0 mg/m^2 TLC388HCl, Mean (SD)
[3] = Day 1, dose group 6.0 mg/m^2 TLC388HCl, Mean (SD)
[4] = Day 1, dose group 9.0 mg/m^2 TLC388HCl, Mean (SD)
[5] = Day 1, dose group 20.0 mg/m^2 TLC388HCl, Mean (SD)
[6] = Day 1, dose group 30.0 mg/m^2 TLC388HCl, Mean (SD)
[7] = Day 1, dose group 35.0 mg/m^2 TLC388HCl, Mean (SD)
[8] = Day 1, dose group 40.0 mg/m^2 TLC388HCl, Mean (SD)
[9] = Day 1, dose group 50.0 mg/m^2 TLC388HCl, Mean (SD)
[10] = Day 1, dose group 60.0 mg/m^2 TLC388HCl, Mean (SD)
[11] = Day 8, dose group 1.5 mg/m^2 TLC388HCl, Mean (SD)
[12] = Day 8, dose group 3.0 mg/m^2 TLC388HCl, Mean (SD)
[13] = Day 8, dose group 6.0 mg/m^2 TLC388HCl, Mean (SD)
[14] = Day 8, dose group 9.0 mg/m^2 TLC388HCl, Mean (SD)
[15] = Day 8, dose group 20.0 mg/m^2 TLC388HCl, Mean (SD)
[16] = Day 8, dose group 30.0 mg/m^2 TLC388HCl, Mean (SD)
[17] = Day 8, dose group 35.0 mg/m^2 TLC388HCl, Mean (SD)
[18] = Day 8, dose group 40.0 mg/m^2 TLC388HCl, Mean (SD)
[19] = Day 8, dose group 50.0 mg/m^2 TLC388HCl, Mean (SD)
[20] = Day 8, dose group 60.0 mg/m^2 TLC388HCl, Mean (SD)
[21] = patients treated with 60 mg/m^2 of TLC388HCl (N = 6)

Procedure: A non-randomized phase I clinical trial was conducted at 4 institutions in the US and Taiwan.
Patients were included in this trial if they are over the age of 18, with advanced cancer and the ECOG performance status is 0 or 1. […] Patients were excluded from the study if they have previously received more than 3 regimens of chemotherapy, or if they have received chemotherapy or radiotherapy within 4 weeks of the trial recruitment.
Eligible patients were given the pharmaceutical composition of the present invention, comprising a mixture of TLC388HCl and mPEG2000-DSPE in a molar ratio of 1:0.7 to 1:0.9 (known as Lipotecan®). […] The pharmaceutical composition was administered as a 30-min IV infusion, on days 1, 8, and 15 of a 28-day cycle (i.e. 3 IV infusions per 28-day cycle).
Serum samples were collected from the patients for pharmacokinetic analysis on day 1, day 8 and day 15 of Cycles 1 and 2, at the following times:
Post IV infusion: (Day 1 and 8 of Cycle 1): 33 min; 40 min; 50 min; 1 h; 1 h 30 min; 2 h; 4 h and 8 h. Post IV infusion (Day 15 of Cycle 1 and Day 1, 8, and 15 of Cycle 2): 4 h. Patients were assessed every 8 weeks, after 2 cycles of treatments.
During the 2-cycle study period, the patients were examined regularly for the following outcomes: • Side effect/DLT; • The pK profiles of the (S,S) and (S,R) diastereomers of TLC388HCl, its 3 metabolites (TLC-U1, TLC-U2 and Topotecan) on day 1 and day 8 of the treatment cycle; and • Anti-cancer efficacy.

## CCC1(OC(=O)C(C)ON=C2c3cc([N+](=O)[O-])cc([N+](=O)[O-])c3-c3c2cc([N+](=O)[O-])cc3[N+](=O)[O-])C(=O)OCc2c1cc1n(c2=O)Cc2cc3c(CN(C)C)c(O)ccc3nc2-1.Cl (stereo not drawn) [S,R TLC388HCl]
  difference between PK profiles on Day 1 and Day 8: no significant difference
  half-life: a few minutes
[1]
  AUC0-t: 1.646 ng·h/mL
  Cmax: 3.188 ng/mL
  Tmax: 0.606 (0.106) hr
  t1/2: 2.603 (3.591) hr
[2]
  AUC0-t: 4.728 ng·h/mL
  Cmax: 2.743 ng/mL
  Tmax: 0.933 (0.936) hr
[3]
  AUC0-t: 1.564 ng·h/mL
  Cmax: 4.073 ng/mL
  Tmax: 0.467 (0.209) hr
[4]
  AUC0-t: 0.821 ng·h/mL
  Cmax: 2.196 ng/mL
  Tmax: 0.354 (0.209) hr
  t1/2: 0.197 (0.218) hr
[5]
  AUC0-t: 8.671 ng·h/mL
  Cmax: 29.303 ng/mL
  Tmax: 0.250 (0.000) hr
  t1/2: 2.828 (4.510) hr
[6]
  AUC0-t: 3.624 ng·h/mL
  Cmax: 12.930 ng/mL
  Tmax: 0.396 (0.292) hr
  t1/2: 0.258 (0.271) hr
[7]
  AUC0-t: 138.61 ng·h/mL
  Cmax: 263.58 ng/mL
  Tmax: 0.709 (0.083) hr
  t1/2: 3.030 (1.537) hr
[8]
  AUC0-t: 10.818 ng·h/mL
  Cmax: 28.259 ng/mL
  Tmax: 0.415 (0.152) hr
  t1/2: 0.460 (0.772) hr
[9]
  AUC0-t: 14.387 ng·h/mL
  Cmax: 43.180 ng/mL
  Tmax: 0.403 (0.143) hr
  t1/2: 0.483 (0.334) hr
[10]
  AUC0-t: 11.285 ng·h/mL
  Cmax: 63.194 ng/mL
  Tmax: 0.357 (0.148) hr
  t1/2: 0.639 (0.425) hr
[11]
  AUC0-t: 0.449 ng·h/mL
  Cmax: 0.916 ng/mL
  Tmax: 0.489 (0.215) hr
  t1/2: 0.087 h
[12]
  AUC0-t: 0.574 ng·h/mL
  Cmax: 1.811 ng/mL
  Tmax: 0.350 (0.173) hr
  t1/2: 0.050 (0.008) hr
[13]
  AUC0-t: 2.190 ng·h/mL
  Cmax: 8.287 ng/mL
  Tmax: 0.467 (0.209) hr
  t1/2: 0.072 h
[14]
  AUC0-t: 5.396 ng·h/mL
  Cmax: 3.325 ng/mL
  Tmax: 2.408 (3.729) hr
  t1/2: 0.133 (0.084) hr
[15]
  AUC0-t: 4.707 ng·h/mL
  Cmax: 15.753 ng/mL
  Tmax: 0.328 (0.135) hr
  t1/2: 0.115 (0.064) hr
[16]
  AUC0-t: 18.892 ng·h/mL
  Cmax: 38.413 ng/mL
  Tmax: 0.512 (0.240) hr
  t1/2: 0.202 (0.242) hr
[17]
  AUC0-t: 139.26 ng·h/mL
  Cmax: 403.60 ng/mL
  Tmax: 0.621 (0.141) hr
  t1/2: 3.329 (2.590) hr
[18]
  AUC0-t: 34.254 ng·h/mL
  Cmax: 76.660 ng/mL
  Tmax: 0.303 (0.113) hr
  t1/2: 0.411 (0.676) hr
[19]
  AUC0-t: 39.251 ng·h/mL
  Cmax: 97.288 ng/mL
  Tmax: 0.297 (0.104) hr
  t1/2: 0.764 (1.045) hr
[20]
  AUC0-t: 13.377 ng·h/mL
  Cmax: 47.340 ng/mL
  Tmax: 0.450 (0.115) hr
  t1/2: 1.416 (1.169) hr
[21]
  Dose-normalized AUClast: 0.82 ± 1.92 nM*h/(mg/m^2)
  Dose-normalized Cmax: 1.63 ± 3.77 nM/(mg/m^2)
  Tmax: 0.47 ± 0.30 h
  t1/2: 1.08 ± 1.77 h

## CCC1(OC(=O)C(C)ON=C2c3cc([N+](=O)[O-])cc([N+](=O)[O-])c3-c3c2cc([N+](=O)[O-])cc3[N+](=O)[O-])C(=O)OCc2c1cc1n(c2=O)Cc2cc3c(CN(C)C)c(O)ccc3nc2-1.Cl (stereo not drawn) [S,S TLC388HCl]
  difference between PK profiles on Day 1 and Day 8: no significant difference
  half-life: a few minutes
[1]
  AUC0-t: 2.190 ng·h/mL
  Cmax: 4.492 ng/mL
  Tmax: 0.606 (0.106) hr
  t1/2: 2.792 (3.856) hr
[2]
  AUC0-t: 6.136 ng·h/mL
  Cmax: 3.857 ng/mL
  Tmax: 0.933 (0.936) hr
[3]
  AUC0-t: 1.866 ng·h/mL
  Cmax: 5.763 ng/mL
  Tmax: 0.467 (0.209) hr
[4]
  AUC0-t: 1.141 ng·h/mL
  Cmax: 2.985 ng/mL
  Tmax: 0.429 (0.212) hr
  t1/2: 0.074 (0.033) hr
[5]
  AUC0-t: 14.699 ng·h/mL
  Cmax: 51.193 ng/mL
  Tmax: 0.250 (0.000) hr
  t1/2: 0.432 (0.260) hr
[6]
  AUC0-t: 5.227 ng·h/mL
  Cmax: 18.623 ng/mL
  Tmax: 0.454 (0.276) hr
  t1/2: 0.160 (0.034) hr
[7]
  AUC0-t: 212.19 ng·h/mL
  Cmax: 417.03 ng/mL
  Tmax: 0.679 (0.116) hr
  t1/2: 2.221 (0.789) hr
[8]
  AUC0-t: 17.287 ng·h/mL
  Cmax: 47.220 ng/mL
  Tmax: 0.415 (0.152) hr
  t1/2: 0.457 (0.812) hr
[9]
  AUC0-t: 23.967 ng·h/mL
  Cmax: 76.840 ng/mL
  Tmax: 0.403 (0.143) hr
  t1/2: 0.218 (0.075) hr
[10]
  AUC0-t: 18.196 ng·h/mL
  Cmax: 103.16 ng/mL
  Tmax: 0.357 (0.148) hr
  t1/2: 0.546 (0.353) hr
[11]
  AUC0-t: 0.608 ng·h/mL
  Cmax: 1.297 ng/mL
  Tmax: 0.489 (0.215) hr
  t1/2: 0.093 h
[12]
  AUC0-t: 0.852 ng·h/mL
  Cmax: 2.902 ng/mL
  Tmax: 0.350 (0.173) hr
[13]
  AUC0-t: 3.152 ng·h/mL
  Cmax: 12.160 ng/mL
  Tmax: 0.467 (0.209) hr
  t1/2: 0.045 h
[14]
  AUC0-t: 7.000 ng·h/mL
  Cmax: 4.776 ng/mL
  Tmax: 2.408 (3.729) hr
  t1/2: 0.195 h
[15]
  AUC0-t: 7.369 ng·h/mL
  Cmax: 24.533 ng/mL
  Tmax: 0.328 (0.135) hr
  t1/2: 0.509 (0.731) hr
[16]
  AUC0-t: 28.454 ng·h/mL
  Cmax: 58.903 ng/mL
  Tmax: 0.587 (0.167) hr
  t1/2: 0.114 (0.061) hr
[17]
  AUC0-t: 208.58 ng·h/mL
  Cmax: 616.50 ng/mL
  Tmax: 0.621 (0.141) hr
  t1/2: 4.009 (1.684) hr
[18]
  AUC0-t: 58.170 ng·h/mL
  Cmax: 127.39 ng/mL
  Tmax: 0.303 (0.113) hr
  t1/2: 0.429 (0.687) hr
[19]
  AUC0-t: 58.594 ng·h/mL
  Cmax: 150.12 ng/mL
  Tmax: 0.297 (0.104) hr
  t1/2: 0.817 (1.200) hr
[20]
  AUC0-t: 24.500 ng·h/mL
  Cmax: 87.780 ng/mL
  Tmax: 0.403 (0.143) hr
  t1/2: 0.971 (0.667) hr
At all dose levels
  Cmax and AUC compared with S,R-TLC388HCl: higher than those of S,R-TLC388HCl
[21]
  Dose-normalized AUClast: 1.22 ± 2.87 nM*h/(mg/m^2)
  Dose-normalized Cmax: 2.60 ± 6.02 nM/(mg/m^2)
  Tmax: 0.47 ± 0.3 h
  t1/2: 0.75 ± 1.18 h

— patent publication US20140135357A1, “DOSE REGIME FOR CAMPTOTHECIN DERIVATIVES” (Taiwan Liposome Company, Ltd., priority 2012, published 2014)
